The target of one series is T1, CCR9 receptor (Homo sapiens, UniProt P51686).
T1 sequence (P51686 1-369): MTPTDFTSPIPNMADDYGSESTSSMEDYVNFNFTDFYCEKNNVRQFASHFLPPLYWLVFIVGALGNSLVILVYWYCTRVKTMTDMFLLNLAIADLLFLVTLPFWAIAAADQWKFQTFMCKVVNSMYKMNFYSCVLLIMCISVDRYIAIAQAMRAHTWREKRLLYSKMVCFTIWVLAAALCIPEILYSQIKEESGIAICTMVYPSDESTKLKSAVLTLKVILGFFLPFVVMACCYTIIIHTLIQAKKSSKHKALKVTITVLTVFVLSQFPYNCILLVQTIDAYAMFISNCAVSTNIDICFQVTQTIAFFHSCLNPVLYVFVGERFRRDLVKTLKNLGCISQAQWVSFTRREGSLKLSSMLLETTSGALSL
Put plainly: Calcium mobilization (Ca FLIPR) assay, antagonist mode vs TECK. The following applies: for LipE: LipE = pIC50-clogD; for IC50: cells expressing CCR9, TECK at EC80 0.01 uM, read-out: CCR9 Ca2+ IC50. It is filed as cell-based. The method, then:
Calcium Mobilization Assay:
Cells expressing CCR9 receptor (MultiSpan, Hayward, Calif.) were seeded in 384-well plates. Ca^2+ assays were conducted after overnight culture in the plates according to the manufacturer's protocol using Screen Quest™ Fluo-8 no wash kit (AAT Bioquest, Sunnyvale, Calif.). Dye loading buffer was added to the cells and incubated for 45 minutes at 37° C. followed by 15 minutes incubation at room temperature. Compounds in the presence of 0.1% DMSO were applied to the cells during calcium flux measurement. Calcium flux was monitored for 90 seconds with compound application after 10 seconds. For antagonist mode, cells were preincubated with the compound at room temperature for 10 minutes before the application of the control agonist TECK (Preprotech, Rocky Hill, N.J.) at EC80 concentration of 0.01 uM obtained from dose-response curves of control agonist.
(A change in cytosolic calcium serves as a functional read-out for many receptors and channels.)

The nature of series [1]: Human liver microsome clearance. The class given is in vitro ADME. Conditions: second value of RLM/HLM cell. Background: Liver microsomes are vesicles of endoplasmic reticulum, rich in cytochrome P450 enzymes.
Series [2] is described as follows: pH-solubility (high-throughput, buffers). The class given is physicochemical. The following applies: for Sol. pH 4: 1000 ug compound in 1 mL pH 4 buffer; for Sol. pH 7: 1000 ug compound in 1 mL pH 7 buffer; for Sol. pH 9: 1000 ug compound in 1 mL pH 9 buffer. The method, then: Solubility of representative acidic triazoles was measured in 3 buffer systems (pH 4, 7.4 and 9) using an in-house high-throughput solubility method. A stock solution of test article was prepared in DMA (20 mg/ml) and spiked into each buffer system (20× dilution) to target 1 mg/ml concentration. The samples were vortexed briefly and equilibrated for 24 hr at RT. Samples were then filtered using 0.22u PVDF membrane filters and analyzed for drug concentration using HPLC.

Series [3] in a line: Rat liver microsome clearance. The following applies: first value of RLM/HLM cell. It is filed as in vitro ADME. The method, then:
Microsomal In-Vitro Clearance:
The test articles (2 μM) were incubated for one hour in 1 mg/mL rat hepatic microsomes with 2 mM NADPH at 37° C. with aliquots removed at t=0, 15, 30 and 60 minutes. Incubations were terminated at the specified times by protein precipitation, and samples were centrifuged. Resultant supernants were analyzed by LC-MS/MS for the amount of incubated compound remaining, and the half life (t1/2) and intrinsic microsomal clearance rate (CLint) of each compound was calculated.

The test system of the next series is Molt-4 cells. Nature of the series: Chemotaxis assay of Molt-4 cells towards TECK. It is filed as cell-based. Conditions: Homo sapiens; Molt-4 cells in HBSS buffer with 0.1% BSA; TECK at EC80. How it is done:
Molt-4 cells were harvested and re-suspended in HBSS buffer with 0.1% BSA or in 100% human serum. Cell suspensions were mixed with compound solutions for 10 min and then seeded onto the upper chamber of the ChemoTX chemotaxis plates with 5 μm pore size polycarbonate membrane from NeuroProbe (Gaithersburg, Md.). EC80 concentration of TECK was applied in the bottom chamber. After 2 hours of incubation at 37° C., the assay was terminated by removing the upper chamber. The cells migrated into the bottom chamber were quantified with CyQUANT solution from Invitrogen (Grand Island, N.Y.).

The structures appear in SMILES notation. Values joined by “and” are separate entries in the source; they are usually repeats but may differ in a detail not shown here. Equal entries are not always repeated.

With `Cc1nc2nc(C(F)(F)F)nn2c(O)c1Cc1ccc(C(C)(C)C)cc1` [Compound 2], at CCR9 receptor, the LipE was 2.6 and the IC50 is 410 nM. Moreover, in series [1], the “HLM CL (human liver microsome hepatic clearance)” value (shortened to “HLM CL”) worked out at 19 mL/min/kg. Besides, in series [2], the “Sol. pH 4” value was 4 ug/mL; the “Sol. pH 7” value was 565 ug/mL; the “Sol. pH 9” value was 1035 ug/mL and > 1000 ug/mL. In addition, the “RLM CL (rat liver microsome hepatic clearance)” value (shortened to “RLM CL”) in series [3] is on record as 54 mL/min/kg.
As to `Cc1c(Cc2ccc(C(C)(C)C)cc2)c(O)nc2ncnn12` [Compound 3], the 50% inhibitory concentration (IC50) on CCR9 receptor came out at 820 nM.
Same read-out and setting: then `Cc1c(Cc2ccc(C(C)(C)C)cc2)c(=O)n2nc(C(F)(F)F)nc2n1C` [Compound 4], with above 20000 nM; and `COc1c(Cc2ccc(C(C)(C)C)cc2)c(C)nc2nc(C(F)(F)F)nn12` [Compound 5], with 3700 nM.
Take `Cc1nc2cc(C(F)(F)F)nn2c(O)c1Cc1ccc(C(C)(C)C)cc1` [Compound 7]: on CCR9 receptor, the IC50 turned out to be 110 nM. In the series with Molt-4 cells, this compound showed an IC50 of 980 nM. In addition, the “HLM CL” value in series [1] is 18 mL/min/kg. In series [2], the “Sol. pH 4” value turned out to be 0 ug/mL, the “Sol. pH 7” value is given as 0 ug/mL and the “Sol. pH 9” value is 5 ug/mL. Moreover, in series [3], the “RLM CL” value came out at 42 mL/min/kg.
On to `CCc1nc2n[nH]c(=O)n2c(O)c1Cc1ccc(C(C)(C)C)cc1` [Compound 8], for which, on CCR9 receptor, the LipE is 5.5 and the IC50 was found to be 28 nM. The compound also came in with an IC50 in the series on Molt-4 cells of 230 nM. In addition, the “HLM CL” value in series [1] stood at 4 mL/min/kg. Besides, in series [2], the “Sol. pH 4” value is reported as 79 ug/mL, the “Sol. pH 7” value was 117 ug/mL and the “Sol. pH 9” value is given as 914 ug/mL. The “RLM CL” value in series [3] is listed as 39 mL/min/kg.
Regarding `Cc1cn2c(O)c(Cc3ccc(C(C)(C)C)cc3)c(C)nc2n1` [Compound 9], on CCR9 receptor, the IC50 was above 10000 nM.
Still for that read-out and setting: then `CCc1nc2c[nH]nc2c(O)c1Cc1ccc(C(C)(C)C)cc1` [Compound 10], with above 10000 nM.
Consider `Cc1nc2nc(C)c(Cc3ccc(C(C)(C)C)cc3)c(O)n2n1` [Compound 12], for which, on CCR9 receptor, the LipE was 3.9 and the IC50 is 220 nM. In series [1], the “HLM CL” value amounted to 11 mL/min/kg. Also, the “RLM CL” value in series [3] was found to be 50 mL/min/kg.
With `CCc1nc2nc(C)nn2c(O)c1Cc1ccc(C(C)(C)C)cc1` [Compound 13], at CCR9 receptor, the LipE is on record as 4.4 and the IC50 is 19 nM. For the same compound, the IC50 in the series on Molt-4 cells is 130 nM.
`CCc1nc2nc(N)nn2c(O)c1Cc1ccc(C(C)(C)C)cc1` [Compound 14]: on CCR9 receptor, the LipE was found to be 5.9 and the IC50 was 2 nM. Besides, the IC50 in the series on Molt-4 cells came out at 50 nM. Moreover, the “HLM CL” value in series [1] turned out to be 6 mL/min/kg. In series [2], the “Sol. pH 4” value is listed as 2 ug/mL, the “Sol. pH 7” value amounted to 7 ug/mL and the “Sol. pH 9” value was 358 ug/mL. Besides, the “RLM CL” value in series [3] amounted to 39 mL/min/kg.
Turning to `CCc1nc2nc(N(C)C)nn2c(O)c1Cc1ccc(C(C)(C)C)cc1` [Compound 15], on CCR9 receptor, the LipE was 4.1 and the IC50 was determined as 33 nM. In the series with Molt-4 cells, this compound yielded an IC50 of 380 nM. In addition, the “HLM CL” value in series [1] came to 12 mL/min/kg. For the same compound, the “RLM CL” value in series [3] was 43 mL/min/kg.
On to `CCc1nc2nc(CN(C)C)nn2c(O)c1Cc1ccc(C(C)(C)C)cc1` [Compound 16], for which the IC50 at CCR9 receptor was found to be 290 nM.
As for `CCc1nc2nc(COC)nn2c(O)c1Cc1ccc(C(C)(C)C)cc1` [Compound 17], the figures for the IC50 at CCR9 receptor and in the series with Molt-4 cells were 7 nM and 190 nM, respectively. Also, the “HLM CL” value in series [1] is reported as 13 mL/min/kg. Further, the “RLM CL” value in series [3] was determined as 36 mL/min/kg.
Regarding `CCc1nc2nc(C(=O)N(C)C)nn2c(O)c1Cc1ccc(C(C)(C)C)cc1` [Compound 18], the IC50 at CCR9 receptor worked out at 12 nM. In addition, the IC50 in the series on Molt-4 cells was determined as 520 nM. Moreover, the “HLM CL” value in series [1] came to 18 mL/min/kg. In series [2], the “Sol. pH 4” value worked out at 0 ug/mL, the “Sol. pH 7” value is recorded as 0 ug/mL and the “Sol. pH 9” value is recorded as 5 ug/mL. Also, the “RLM CL” value in series [3] amounted to 42 mL/min/kg.
In the case of `CCc1nc2nc(CO)nn2c(O)c1Cc1ccc(C(C)(C)C)cc1` [Compound 20], the LipE on CCR9 receptor stood at 5.5. The IC50 came to 10 nM on CCR9 receptor and 200 nM in the series on Molt-4 cells. Further, in series [1], the “HLM CL” value worked out at 8 mL/min/kg. The “RLM CL” value in series [3] was found to be 43 mL/min/kg.
On the same counts, the results for `CCc1nc2ncnn2c(O)c1Cc1ccc(C(C)(C)C)cc1` [Compound 21] are 4.8, 21 nM, 88 nM, 12 mL/min/kg and 51 mL/min/kg.
Consider `CCCc1nc2ncnn2c(O)c1Cc1ccc(C(C)(C)C)cc1` [Compound 22], for which, on CCR9 receptor, the LipE was found to be 5.0 and the IC50 came out at 4 nM. This compound also gave an IC50 in the series on Molt-4 cells of 55 nM.
Regarding `CC(C)Cc1nc2ncnn2c(O)c1Cc1ccc(C(C)(C)C)cc1` [Compound 24], on CCR9 receptor, the LipE is 3.9 and the IC50 amounted to 27 nM. The IC50 in the series on Molt-4 cells came out at 270 nM. Besides, in series [1], the “HLM CL” value is 12 mL/min/kg. The “RLM CL” value in series [3] is 43 mL/min/kg.
On the same counts, the results for `CCOc1nc2ncnn2c(O)c1Cc1ccc(C(C)(C)C)cc1` [Compound 25] are 4.8, 23 nM, 92 nM, 11 mL/min/kg and 52 mL/min/kg.
For `CC(C)(C)c1ccc(Cc2c(C3CCCC3)nc3ncnn3c2O)cc1` [Compound 28], the IC50 at CCR9 receptor is 15 nM; with Molt-4 cells, 145 nM. In series [1], the “HLM CL” value worked out at 11 mL/min/kg. The “RLM CL” value in series [3] is given as 47 mL/min/kg.
Consider `CC(C)(C)c1ccc(Cc2c(C3CCOC3)nc3ncnn3c2O)cc1` (stereo not drawn) [Compound 29], for which the IC50 came to 17 nM at CCR9 receptor and 205 nM in the series with Molt-4 cells. In addition, the “HLM CL” value in series [1] is given as 8 mL/min/kg. The “RLM CL” value in series [3] was found to be 45 mL/min/kg.
As to `CC(C)(C)c1ccc(Cc2c(-c3ccoc3)nc3ncnn3c2O)cc1` [Compound 30], on CCR9 receptor, the LipE is on record as 5.3. In addition, the IC50 on CCR9 receptor came to 5 nM; in the series with Molt-4 cells it was 104 nM.
As for `CC(C)(C)c1ccc(Cc2c(O)nc3ncnn3c2O)cc1` [Compound 31], the IC50 at CCR9 receptor was above 10000 nM.
The same measure, in the same setting: then `CN(C)c1nc2ncnn2c(O)c1Cc1ccc(C(C)(C)C)cc1` [Compound 32], with above 1000 nM.
With `Cc1nc2nc(C(F)(F)F)nn2c(O)c1Cc1ccc(N2CC(C)OC(C)C2)c(F)c1` (stereo not drawn) [Compound 33], at CCR9 receptor, the LipE is given as 3 and the IC50 worked out at 1900 nM. In series [1], the “HLM CL” value is given as “—/17 mL/min/kg”. In series [2], the “Sol. pH 4” value was found to be 79 ug/mL, the “Sol. pH 7” value is on record as above 1000 ug/mL and the “Sol. pH 9” value is given as above 1000 ug/mL.
`Cc1nc2nc(C(F)(F)F)nn2c(O)c1Cc1ccc(C2(F)CCOCC2)cc1` [Compound 34]: at CCR9 receptor, the LipE is recorded as 3.7 and the IC50 is 340 nM. Moreover, the “HLM CL” value in series [1] was determined as 17 mL/min/kg. Besides, the “RLM CL” value in series [3] came out at 43 mL/min/kg.

A word on the IC50: it is the concentration that gives 50% inhibition.
